Experimental data reported in PMC11124822, “Discovery and Anticancer Screening of Novel Oxindole-Based Derivative Bearing Pyridyl Group as Potent and Selective Dual FLT3/CDK2 Kinase Inhibitor” (Pharmaceuticals, 2024).

Assays:
[1] = test system: CDK6; set-up: method as in PMID 29357250; settings: cited from earlier work
[2] = test system: MV4-11 cell xenografts; set-up: method as in PMID 29357250; settings: cited from earlier work
[3] = molecular target: T1, CDK2 (Homo sapiens, UniProt P24941); test: Z'-LYTE kinase assay; format: biochemical; settings: three separate experiments ± SD
T1 construct: purchased Invitrogen/Life Technologies
Experimental: (§1) The Z’-LYTE® technology, which relies on FRET (Fluorescence Resonance Energy Transfer) from Invitrogen/Life Technologies, was employed for this evaluation for all kinases except VEGFR-2. The VEGFR-2 kinase assay was conducted in a 96-well streptavidin-coated plate using a recombinant human VEGFR-2/KDR ELISA kit, following the manufacturer’s instructions. […] Statistical significance was assessed using one-way analysis of variance (ANOVA), followed by the Dunnett test; data are represented as means ± SD.

[4] = molecular target: T2, FLT3 (Homo sapiens, UniProt P36888); test: Z'-LYTE kinase assay; format: biochemical; settings: three separate experiments ± SD
T2 construct: purchased Invitrogen/Life Technologies
T2 sequence (P36888 27-993): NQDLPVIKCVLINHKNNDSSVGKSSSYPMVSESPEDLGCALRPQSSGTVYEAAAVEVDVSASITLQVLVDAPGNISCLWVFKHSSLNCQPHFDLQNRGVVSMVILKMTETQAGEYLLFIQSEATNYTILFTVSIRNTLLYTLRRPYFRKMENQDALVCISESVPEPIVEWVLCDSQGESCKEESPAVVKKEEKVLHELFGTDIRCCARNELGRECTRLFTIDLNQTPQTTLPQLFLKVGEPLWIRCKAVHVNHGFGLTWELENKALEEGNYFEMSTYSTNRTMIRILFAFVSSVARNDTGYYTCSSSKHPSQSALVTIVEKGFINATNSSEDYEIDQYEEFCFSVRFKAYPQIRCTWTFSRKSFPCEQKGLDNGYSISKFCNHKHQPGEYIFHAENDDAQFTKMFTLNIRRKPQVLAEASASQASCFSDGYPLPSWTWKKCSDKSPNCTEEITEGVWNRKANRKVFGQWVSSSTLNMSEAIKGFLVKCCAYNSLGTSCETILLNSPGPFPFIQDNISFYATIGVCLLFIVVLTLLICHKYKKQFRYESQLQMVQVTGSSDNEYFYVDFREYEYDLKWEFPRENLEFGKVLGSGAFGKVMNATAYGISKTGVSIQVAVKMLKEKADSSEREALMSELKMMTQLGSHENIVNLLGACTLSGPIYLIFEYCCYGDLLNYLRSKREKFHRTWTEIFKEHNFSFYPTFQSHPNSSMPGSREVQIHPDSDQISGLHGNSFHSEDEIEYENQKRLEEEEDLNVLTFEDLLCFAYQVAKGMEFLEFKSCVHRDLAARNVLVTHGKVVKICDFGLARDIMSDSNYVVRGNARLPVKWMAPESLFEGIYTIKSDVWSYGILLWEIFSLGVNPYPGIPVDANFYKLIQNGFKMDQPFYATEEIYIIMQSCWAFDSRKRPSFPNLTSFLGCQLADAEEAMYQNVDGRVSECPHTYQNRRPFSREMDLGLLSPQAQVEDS
Experimental: as §1

[5] = test system: CDK4; set-up: method as in PMID 29357250; settings: cited from earlier work
[6] = molecular target: FLT3 kinase; set-up: method as in PMID 36403191, PMID 37446914; settings: cited from earlier work
[7] = test system: FLT3 ITD-mutated MV4-11 AML cells; set-up: method as in PMID 36403191, PMID 37446914; settings: after 72 h; cited from earlier work
[8] = test system: MCF-7 breast cancer cell line; set-up: method as in PMID 36844536; settings: cited from earlier work
[9] = test system: MCF-12A normal breast cell line; set-up: method as in PMID 36844536; settings: cited from earlier work

CN1CCN(Cc2ccc(NC(=O)c3n[nH]cc3Nc3ncnc4[nH]ccc34)cc2)CC1 [FN-1501, 4-((7H-Pyrrolo[2,3-d]pyrimidin-4-yl)amino)-N-(4-((4-methylpiperazin-1-yl)methyl)phenyl)-1H-pyrazole-3-carboxamide]
IC50 [1]: 1.96 nM | effectiveness in treating leukemia in mouse models [2]: remarkable effectiveness | IC50 [3]: 1.99 ± 0.12 nM | IC50 [4]: 0.79 ± 0.08 nM | IC50 [5]: 0.85 nM

COc1cc(C=C2C(=O)Nc3ccccc32)ccc1O [III]
IC50 [6]: 2490 nM | IC50 [7]: 4300 nM

COc1cc(C=C2C(=O)Nc3ccc(Cl)cc32)ccc1OCc1ccccn1 [IV]
IC50 [8]: 17000 nM | impact on the MCF-12A normal breast cell line [9]: no impact
